{"source": "paper PMC10223470", "about": "(Molecules, 2023)", "key": {"human 5-HT7 receptor": {"biological_target": "T1, human 5-HT7 receptor (Homo sapiens, UniProt P34969)", "T1 construct": "expressed in transfected cells; host or cells: HEK293", "T1 sequence (P34969 whole entry)": "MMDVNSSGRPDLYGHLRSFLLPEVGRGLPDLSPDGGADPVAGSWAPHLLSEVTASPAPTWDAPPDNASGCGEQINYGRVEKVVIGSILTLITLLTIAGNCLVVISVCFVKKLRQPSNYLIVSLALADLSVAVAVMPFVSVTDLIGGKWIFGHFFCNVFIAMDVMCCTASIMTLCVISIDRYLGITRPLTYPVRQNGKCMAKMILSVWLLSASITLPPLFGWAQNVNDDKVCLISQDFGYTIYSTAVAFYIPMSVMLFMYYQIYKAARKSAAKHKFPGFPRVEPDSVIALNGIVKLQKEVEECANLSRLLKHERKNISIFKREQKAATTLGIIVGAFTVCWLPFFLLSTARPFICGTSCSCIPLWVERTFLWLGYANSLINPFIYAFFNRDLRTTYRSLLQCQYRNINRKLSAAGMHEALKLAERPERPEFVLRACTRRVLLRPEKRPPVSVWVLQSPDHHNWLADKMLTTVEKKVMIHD", "assay": "Competition radioligand binding at human 5-HT7 receptor ([3H]-SB269970)", "conditions": "mean ± SEM of 2 independent experiments, read-out: hu5-HT7 % inh. at 10 µM", "protocol": "Competition radioligand binding assays were performed on membranes isolated from cell lines stably expressing the cloned human receptors, which were either in-house or commercially available. […] Assays (250 μL assay final volume) were carried out in 96-well polypropylene plates in duplicate. In short, the suspension of appropriate membrane protein was incubated in an assay buffer with the addition of the corresponding radioligand, in the presence or absence of a tested compound or reference compound. […] After the incubation, the content of the test plates was transferred to 96 well plates with glass fiber filter GF/B or GF/C, previously pretreated with polyethyleneimine (PEI), and rapidly filtered with the use of vacuum, followed by rapid washing with cold (4 °C) wash buffer. After that, the filter plates were dried at 60 °C for 1 h. Then, 30 μL of liquid scintillation cocktail (UniverSol-ES, MP Biomedicals, Solon, OH, USA) was added to each well of the filter plates, and the radioactivity was measured in a MicroBeta^2 microplate scintillation counter (PerkinElmer, Madrid, Spain).\nCompetition binding curves were fitted to a one-site competition binding model (Fit Ki) with the use of Prism 7 software (GraphPad, San Diego, CA, USA). logKi (log of the equilibrium dissociation constant (Ki)) values were obtained after constraining the concentration of radioligand employed in the assay and its dissociation constant (KD) as determined in saturation radioligand binding assays."}, "mice [1]": {"tested_on": "mice", "assay": "Forced swim test (FST)", "assay_type": "in vivo", "conditions": "60 min before the test", "protocol": "The experiments were carried out on 6 weeks old naive Swiss male mice (Experimental Medicine Center (OMD), Lublin, Poland), weighing 28–30 g. The cages with mice were located in air-conditioned rooms maintaining the ambient temperature within the range of 23–25 °C. The animals were provided with a natural 12 h day/night cycle, replicating the day and night mode. Each testing group was represented by 8–10 animals, depending on the research schedule. All experiments were conducted according to the National Institute of Health Guidelines for the Care and Use of Laboratory Animals (8th edition) and to the European Community Council Directive for the Care and Use of Laboratory Animals of 22 September 2010 (2010/63/EU) and were approved by the Local Ethical Committee (number of ethical approval: 147/2018). Compound 17 (25, 50, 75 mg/kg) was suspended in 1% Tween 80 in saline solution and was administered intraperitoneally (i.p.) 60 min before the test. […] Imipramine hydrochloride (30 mg/kg, Sigma-Aldrich was administered intraperitoneally (i.p.) 60 min before the test. […] Sigma-Aldrich, USA) was given subcutaneously (s.c.). Prior to administration, the agent was dissolved in saline and injected 30 min before the test. Control animals received an (i.p.) or (s.c.) injection of a respective vehicle. All compounds were injected in a manner generally accepted in experimental pharmacology, in an amount of 10 mL/kg body weight. Forced Swim Test was carried out according to the method of Porsolt et al.. It is a standard behavioral test, called the resignation test, which is used to determine the effectiveness of antidepressant drugs in laboratory rodents. Each mouse was placed individually for 6 min into a glass cylinder (height 25 cm, diameter 10 cm) with 15 cm of water at 23–25 °C. After the first 2 min of the test, the total duration of immobility (in seconds) was measured. An animal was judged to be immobile when it ceased struggling and remained floating motionless and making only movements allowing it to keep the head just above the surface of the water."}, "mice [2]": {"tested_on": "mice", "assay": "Motor coordination, rotarod test", "assay_type": "in vivo", "conditions": "25, 50 and 75 mg/kg i.p., 60 min before testing", "protocol": "The experiments were carried out on 6 weeks old naive Swiss male mice (Experimental Medicine Center (OMD), Lublin, Poland), weighing 28–30 g. The cages with mice were located in air-conditioned rooms maintaining the ambient temperature within the range of 23–25 °C. The animals were provided with a natural 12 h day/night cycle, replicating the day and night mode. Each testing group was represented by 8–10 animals, depending on the research schedule. All experiments were conducted according to the National Institute of Health Guidelines for the Care and Use of Laboratory Animals (8th edition) and to the European Community Council Directive for the Care and Use of Laboratory Animals of 22 September 2010 (2010/63/EU) and were approved by the Local Ethical Committee (number of ethical approval: 147/2018). Compound 17 (25, 50, 75 mg/kg) was suspended in 1% Tween 80 in saline solution and was administered intraperitoneally (i.p.) 60 min before the test. […] Imipramine hydrochloride (30 mg/kg, Sigma-Aldrich was administered intraperitoneally (i.p.) 60 min before the test. […] Sigma-Aldrich, USA) was given subcutaneously (s.c.). Prior to administration, the agent was dissolved in saline and injected 30 min before the test. […] Motor coordination has been assessed in mice using the chimney test and the rotarod test, according to the procedure we had used before. […]"}}, "data": [{"smiles": "O=C(CCN1C(=O)CSc2ccccc21)Nc1ccc(Cl)cc1", "note": "[Compound 17, N-(4-Chlorophenyl)-3-(3-oxo-2,3-dihydro-4H-benzo[b][1,4]thiazin-4-yl)propanamide]", "values": [{"measurement": "inhibition at 10 µM", "setting": "human 5-HT7 receptor", "result": "5 ± 11", "unit": "%"}, {"measurement": "effect on immobility time", "setting": "mice [1]; 25 mg/kg i.p., p > 0.05", "result": "no statistically significant effect"}, {"measurement": "effect on total time of immobility vs control group", "setting": "mice [1]; 50 mg/kg i.p., p < 0.001", "result": "significantly reduced"}, {"measurement": "effect on total time of immobility vs control group", "setting": "mice [1]; 75 mg/kg i.p., p < 0.01", "result": "significantly reduced"}, {"measurement": "effect on behavior in the rotarod test", "setting": "mice [2]", "result": "did not influence mice behavior"}]}]}
